From ChEMBL document CHEMBL5149985, “Discovery of cytotoxic natural products from Red Sea sponges: Structure and synthesis” (Eur J Med Chem, 2021)
Counter-ions that a name gives are not always drawn. Values belong to the compound of their own block, whether it stands above or below them.

How the values were obtained:
P388 = assay: Anticancer activity against mouse P388 cells assessed as cell growth inhibition; format: functional, cell-based
HCT-116 [1] = assay: cells; conditions: Homo sapiens
Description: Anticancer activity against human HCT-116 cells assessed as inhibition of cell growth by MTT assay

HepG2 [2] = assay: cells; conditions: Homo sapiens
Description: Anticancer activity against human HepG2 cells assessed as inhibition of cell growth by MTT assay

KB 3-1 = assay: Anticancer activity against human KB 3-1 cells assessed as inhibition in cell growth; format: functional, cell-based
MDA-MB-231 [3] = assay: Anticancer activity against human MDA-MB-231 cells assessed as cell viability measured after 24 hrs by MTT assay; format: functional, cell-based; conditions: MDA-MB-231, 24 h
HCT-116 [4] = assay: Anticancer activity against human HCT-116 cells assessed as inhibition of cell growth incubated for 72 hrs by SRB assay; format: functional, cell-based; conditions: HCT-116, 72 h
HepG2 [5] = assay: Anticancer activity against human HepG2 cells assessed as inhibition of cell growth incubated for 72 hrs by SRB assay; format: functional, cell-based; conditions: HepG2, 72 h
MCF7 [6] = assay: Anticancer activity against human MCF7 cells assessed as inhibition of cell growth incubated for 72 hrs by SRB assay; format: functional, cell-based; conditions: MCF7, 72 h
HeLa = assay: Anticancer activity against human HeLa cells assessed as inhibition of cell growth; format: functional, cell-based
HT-29 = assay: Anticancer activity against human HT-29 cells assessed as cell growth inhibition; format: functional, cell-based
A549 = assay: Anticancer activity against human A549 cells assessed as cell growth inhibition; format: functional, cell-based
Homo sapiens = species on record: Homo sapiens; assay: Inhibition of actin (unknown origin) polymerization at 1 uM incubated for 20 mins in presence of ATP by ELISA analysis relative to control
MDA-MB-231 [7] = assay: Anticancer activity against human MDA-MB-231 cells assessed as inhibition of cell growth incubated for 72 hrs by MTT assay; format: functional, cell-based; conditions: MDA-MB-231, 72 h
[8] = Inhibition of actin (unknown origin) polymerization at 100 nM incubated for 20 mins in presence of ATP by ELISA analysis relative to control; conditions: Homo sapiens
[9] = Inhibition of actin (unknown origin) polymerization incubated for 20 mins in presence of ATP by ELISA analysis; design: species or system Homo sapiens
MCF7 [10] = assay: Anticancer activity against human MCF7 cells assessed as inhibition of cell growth incubated for 72 hrs by MTT assay; format: functional, cell-based; conditions: MCF7, 72 h

Structure (SMILES): COc1cccc2c1C(=O)c1c(O)c3c(c(O)c1C2=O)C[C@@](O)(C(=O)CO)C[C@@H]3O[C@H]1C[C@H](N)[C@H](O)[C@H](C)O1 [DOXORUBICIN HYDROCHLORIDE]
- IC50 (P388): 0.0114 nM
- IC50 (HCT-116 [1]): 0.0012 µM
- IC50 (HepG2 [2]): 0.001 µM

Structure (SMILES): C[C@H]1N[C@@H](C(=O)O)Cc2c1[nH]c1ccc(O)cc21 [HYRTIOERECTINE B]
- IC50 (HeLa): 0.02 µM

Structure (SMILES): CC1(C)CCC[C@]2(C)[C@H]3C[C@@H](O)[C@]4(C)[C@H](C=O)C(C=O)=CC[C@H]4[C@]3(C)CC[C@@H]12
- IC50 (HCT-116 [4]): 3.4 µM
- IC50 (HepG2 [5]): 1.7 µM
- IC50 (MCF7 [6]): 3.3 µM

Structure (SMILES): CC[C@@]1(C)CCC[C@]2(C)[C@H]3C[C@H](OC(C)=O)[C@]4(C)CC(C(C)=O)=CC[C@H]4[C@]3(C)CC[C@@H]12
- IC50 (HepG2 [2]): 0.0042 µM

Structure (SMILES): NC(=O)C[C@@]1(O)C=C(Cl)C(=O)C(Br)=C1
- IC50 (HeLa): 0.0178 µM

Structure (SMILES): C=C(CCCC(C)(C)O)C(=O)CC[C@@]1(C)CC[C@@H]([C@H](C)C(=O)OC)OO1 [AIKUPIKOXIDE D]
- IC50 (HT-29): ≥ 1 µg/mL
- IC50 (A549): ≥ 1 µg/mL
- IC50 (P388): ≥ 1 µg/mL

Structure (SMILES): COc1ccc(CC(=O)N2C(=O)SC[C@H]2[C@@]2(OC)C[C@H]3C[C@@H](CC[C@H](C)/C=C\C=C\CC/C(C)=C\C(=O)O3)O2)cc1
- inhibition (Homo sapiens): 13%
- IC50 (MDA-MB-231 [7]): 26.2 µM
- inhibition [8]: 0%
- IC50 [9]: > 10 µM

Structure (SMILES): C/C1=C/C(=O)O[C@@H]2C[C@@H](CC[C@H](C)/C=C\C=C\CC1)O[C@@](O)([C@@H]1CSC(=O)N1)C2 [LATRUNCULIN A]
- inhibition (Homo sapiens): 70%
- IC50 (MDA-MB-231 [7]): 4.19 µM
- inhibition [8]: 30%
- IC50 [9]: 0.284 µM
- IC50 (MCF7 [10]): 0.48 µM

Structure (SMILES): C/C1=C/C(=O)O[C@@H]2C[C@@H](CC[C@H](C)/C=C\C=C\CC1)O[C@@](O)([C@@H]1CSC(=O)N1Cc1ccccc1)C2
- inhibition (Homo sapiens): 64%
- IC50 (MDA-MB-231 [7]): 2.72 µM
- inhibition [8]: 24%
- IC50 [9]: 0.445 µM
- IC50 (MCF7 [10]): 0.63 µM

Structure (SMILES): CC(=O)O[C@@H]1C[C@@H]2[C@@]3(C)CCCC(C)(C)[C@@H]3CC[C@@]2(C)[C@@H]2CCC3=C(C(=O)OC3)[C@@]12C
- IC50 (HCT-116 [4]): 14.4 µM
- IC50 (HepG2 [5]): 17.3 µM
- IC50 (MCF7 [6]): 30.7 µM

Structure (SMILES): CC(=O)O[C@@H]1C[C@@H]2[C@@]3(C)CCCC(C)(C)[C@@H]3CC[C@@]2(C)[C@@H]2C[C@H](O)C3=C([C@H](O)OC3=O)[C@@]12C
- IC50 (HCT-116 [4]): 57.5 µM
- IC50 (HepG2 [5]): 21.8 µM
- IC50 (MCF7 [6]): 32.6 µM

Structure (SMILES): CC1=CC[C@H]2[C@H](CC[C@]2(C)O)C(C)(C)[C@@H]1CC[C@H]1[C@]2(C)CC[C@@H](O)O[C@H]2CC[C@@]1(C)O
- IC50 (KB 3-1): 0.0056 µM

Structure (SMILES): COC(=O)[C@@H](C)[C@@H]1CC[C@](C)(CCC(=O)C(C)(C)CCCC(C)=O)OO1 [DIACARPEROXIDE B]
- IC50 (HT-29): ≥ 1 µg/mL
- IC50 (A549): ≥ 1 µg/mL
- IC50 (P388): ≥ 1 µg/mL

Structure (SMILES): CCN1C(=O)SC[C@H]1[C@@]1(O)C[C@H]2C[C@@H](CC[C@H](C)/C=C\C=C\CC/C(C)=C\C(=O)O2)O1
- inhibition (Homo sapiens): 70%
- IC50 (MDA-MB-231 [7]): 7.19 µM
- inhibition [8]: 31%
- IC50 [9]: 0.283 µM
- IC50 (MCF7 [10]): 0.95 µM

Structure (SMILES): CCN1C(=O)SC[C@H]1[C@@]1(OC)C[C@H]2C[C@@H](CC[C@H](C)/C=C\C=C\CC/C(C)=C\C(=O)O2)O1
- inhibition (Homo sapiens): 18%
- IC50 (MDA-MB-231 [7]): > 50 µM
- inhibition [8]: 0%
- IC50 [9]: > 10 µM

Structure (SMILES): CO[C@]1([C@@H]2CSC(=O)N2C)C[C@H]2C[C@@H](CC[C@H](C)/C=C\C=C\CC/C(C)=C\C(=O)O2)O1
- inhibition (Homo sapiens): 19%
- IC50 (MDA-MB-231 [7]): 19.9 µM
- inhibition [8]: 11%
- IC50 [9]: > 10 µM

Other lines, results leading:

- IC50 (KB 3-1): 0.0047 µM
Structure (SMILES): C[C@@H]1C(=O)C[C@H]2[C@@H](/C1=C/C[C@H]1[C@]3(C)CC[C@H](O)C(C)(C)O[C@H]3CC[C@]1(C)O)C(C)(C)CC[C@]2(C)O [SIPHOLENOL J]

- IC50 (MDA-MB-231 [3]): 18 µM
Structure (SMILES): COC1=C(Br)[C@H]2OC(=O)C[C@]2(O)C=C1Br

- IC50 (HCT-116 [4]): 22.5 µM
- IC50 (HepG2 [5]): 42.5 µM
- IC50 (MCF7 [6]): 40.3 µM
Structure (SMILES): CO[C@H]1C[C@H]2[C@]3(C)CC[C@H]4C(C)(C)CCC[C@]4(C)[C@H]3C[C@@H](OC(C)=O)[C@]2(C)C2=C1[C@@H](O)OC2=O

- IC50 (MDA-MB-231 [3]): 43.4 µM
Structure (SMILES): CCSc1ccc(/C=C2\NC(=O)NC2=O)cc1

- IC50 (P388): 7.3 nM
- IC50 (HeLa): 0.0169 µM
Structure (SMILES): C#C/C=C\CCCCC#CC#CC#CCCC/C=C\C#CCO [DEHYDROISOPHONOCHALYNOL]

- IC50 (HCT-116 [4]): 15.4 µM
- IC50 (HepG2 [5]): 15.5 µM
- IC50 (MCF7 [6]): 20.9 µM
Structure (SMILES): CC(=O)O[C@@H]1C[C@@H]2[C@@]3(C)CCCC(C)(C)[C@@H]3CC[C@@]2(C)[C@@H]2CC=C3C(=O)OCC3[C@@]12C (stereo partly drawn)

- IC50 (HCT-116 [4]): 26.5 µM
- IC50 (HepG2 [5]): 25.4 µM
- IC50 (MCF7 [6]): 55.4 µM
Structure (SMILES): CO[C@H]1NC(=O)C2=C1[C@H](O)C[C@H]1[C@]3(C)CC[C@H]4C(C)(C)CCC[C@]4(C)[C@H]3C[C@@H](OC(C)=O)[C@]21C
